Source: ChEMBL document CHEMBL1255519, “The synthesis of paleic acid, an antimicrobial agent effective against Mannheimia and Pasteurella, and its structurally related derivatives” (2010)
In brackets after ≈: the same amount, converted by molar mass.

Assays:
Type in all cases: functional
[1] = system: Pasteurella multocida; assay: Antimicrobial activity against Pasteurella multocida isolate 6 after 17 hrs by serial agar dilution method
[2] = system: Mannheimia haemolytica; assay: Antimicrobial activity against Mannheimia haemolytica N811 after 17 hrs by serial agar dilution method
[3] = system: Pasteurella multocida; assay: Antimicrobial activity against Pasteurella multocida TS-8 after 17 hrs by serial agar dilution method
[4] = system: Mannheimia haemolytica; assay: Antimicrobial activity against Mannheimia haemolytica N791 after 17 hrs by serial agar dilution method; conditions: N791, 17 h
[5] = system: Histophilus somni; assay: Antimicrobial activity against Histophilus somni 23N2359 after 17 hrs by serial agar dilution method; conditions: 23N2359, 17 h
[6] = system: Pasteurella multocida; assay: Antimicrobial activity against Pasteurella multocida Kobe after 17 hrs by serial agar dilution method
[7] = system: Mannheimia haemolytica; assay: Antimicrobial activity against Mannheimia haemolytica S801 after 17 hrs by serial agar dilution method
[8] = system: Actinobacillus pleuropneumoniae; assay: Antimicrobial activity against Actinobacillus pleuropneumoniae NB001 after 17 hrs by serial agar dilution method
[9] = system: Pasteurella multocida; assay: Antimicrobial activity against Pasteurella multocida M-17 after 17 hrs by serial agar dilution method; conditions: M-17, 17 h
[10] = Pasteurella multocida, isolate 6, 17 h, read-out: MIC
[11] = Mannheimia haemolytica, N811, 17 h, read-out: MIC
[12] = Pasteurella multocida, TS-8, 17 h, read-out: MIC
[13] = Mannheimia haemolytica, S801, 17 h, read-out: MIC
[14] = Actinobacillus pleuropneumoniae, NB001, 17 h, read-out: MIC

Compound	MIC [1, 10] [µg/mL]	MIC [2, 11] [µg/mL]	MIC [3, 12] [µg/mL]	MIC [4] [µg/mL]	MIC [5] [µg/mL]	MIC [6] [µg/mL]	MIC [7, 13] [µg/mL]	MIC [8, 14] [µg/mL]	MIC [9] [µg/mL]	MIC [1] [µg/mL]	MIC [2] [µg/mL]	MIC [3] [µg/mL]	MIC [7] [µg/mL]	MIC [8] [µg/mL]
CC[C@@H](O)CCCCC/C=C\CCCCCCCC(N)=O	> 50	12.5 (≈ 42 µM)	50 (≈ 168 µM)	25 (≈ 84 µM)	> 50	> 50	50 (≈ 168 µM)	> 50	> 50					
CC[C@H](O)CCCCC/C=C\CCCCCCCC(=O)O	50 (≈ 168 µM)	0.78 (≈ 2.61 µM)	6.25 (≈ 20.9 µM)	0.78 (≈ 2.61 µM)	> 50	> 50	0.39 (≈ 1.31 µM)	12.5 (≈ 41.9 µM)	> 50					
CCC(=O)CCCCC/C=C\CCCCCCCC(=O)O	50 (≈ 169 µM)	6.25 (≈ 21.1 µM)	50 (≈ 169 µM)	3.13 (≈ 10.6 µM)	> 50	> 50	6.25 (≈ 21.1 µM)	6.25 (≈ 21.1 µM)	> 50					
CCC1(CCCCC/C=C\CCCCCCCC(=O)O)OCCO1	> 50	25 (≈ 73.4 µM)	25 (≈ 73.4 µM)	25 (≈ 73.4 µM)	> 50	50 (≈ 147 µM)	25 (≈ 73.4 µM)	> 100	> 50					
CC/C(CCCCC/C=C\CCCCCCCC(=O)O)=N/O	3.13 (≈ 10 µM)	1.56 (≈ 5.01 µM)	25 (≈ 80.3 µM)	1.56 (≈ 5.01 µM)	> 50	> 50	1.56 (≈ 5.01 µM)	6.25 (≈ 20.1 µM)	> 50					
CC[C@@H](O)CCCCC/C=C\CCCCCCCC(=O)NO	12.5 (≈ 39.9 µM)	25 (≈ 79.7 µM)	50 (≈ 159 µM)	25 (≈ 79.7 µM)	> 50	> 50	50 (≈ 159 µM)	50 (≈ 159 µM)	> 50					
CC[C@@H](O)CCCCC/C=C\CCCCCCCC(=O)NS(C)(=O)=O	50 (≈ 133 µM)	50 (≈ 133 µM)	25 (≈ 66.6 µM)	50 (≈ 133 µM)	> 50	> 50	25 (≈ 66.6 µM)	> 50	> 50					
CC[C@@H](O)CCCCC/C=C\CCCCCCCc1nnn[nH]1	50 (≈ 155 µM)	50 (≈ 155 µM)	50 (≈ 155 µM)	50 (≈ 155 µM)	50 (≈ 155 µM)	50 (≈ 155 µM)	50 (≈ 155 µM)	50 (≈ 155 µM)	50 (≈ 155 µM)					
CC[C@@H](O)CCCCC/C=C\CCCCCCCC(=O)O (stereo in doubt; 1) [PALEIC ACID]	6.25 (≈ 20.9 µM)	1.56 (≈ 5.23 µM)	3.13 (≈ 10.5 µM)	0.78 (≈ 2.61 µM)	> 50	> 50	1.56 (≈ 5.23 µM)	6.25 (≈ 20.9 µM)	> 50					
CC[C@@H](O)CCCCC/C=C\CCCCCCCC(=O)O (stereo in doubt; 2) [PALEIC ACID]										12.5 (≈ 41.9 µM)	0.78 (≈ 2.61 µM)	6.25 (≈ 20.9 µM)	0.78 (≈ 2.61 µM)	6.25 (≈ 20.9 µM)
